Assay [1] addresses EF-Tu (T. thermophilus) (Thermus thermophilus, UniProt Q5SHN6). Nature of the assay: nitrocellulose filter binding with [3H]GDP.
Assay [2] concerns the target EF-Tu (T. thermophilus) (Thermus thermophilus, UniProt Q5SHN6, T395C). The assay is described as follows: nitrocellulose filter binding with [3H]GDP.

Structures are written as SMILES.

The Kd is the free concentration of one partner at which half of the binding sites on the other are occupied at equilibrium, for simple one-to-one binding. Low values mean higher affinity, high ones lower affinity.

Regarding `Nc1nc2c(ncn2[C@@H]2O[C@H](COP(=O)(O)OP(=O)(O)O)[C@@H](O)[C@H]2O)c(=O)[nH]1` [GDP], the Kd in assay [1] amounted to 7 nM; in assay [2], 11 nM.

For the origin of these results see publication PMC3210414 (Nature structural & molecular biology, 2011).
